According to ChEMBL document CHEMBL5696441 (Nat Chem Biol, 2011):
Calls of active or inactive are those of the source. The rule behind the calls is not given here.

Legend:
[1] = target: Rhodopsin kinase GRK7 (Homo sapiens) (UniProt Q8WTQ7); assay: Inhibition of GRK7 (unknown origin) assessed as remaining activity at 1 uM by Kinome scan method relative to control
[2] = target: Non-receptor tyrosine-protein kinase TYK2 (Homo sapiens) (UniProt P29597); assay: Inhibition of TYK2 JH2 domain (unknown origin) assessed as remaining activity at 1 uM by Kinome scan method relative to control
[3] = target: Ephrin type-B receptor 1 (Homo sapiens) (UniProt P54762); assay: Inhibition of EPHB1 (unknown origin) assessed as remaining activity at 1 uM by Kinome scan method relative to control
[4] = target: Myosin light chain kinase, smooth muscle (Homo sapiens) (UniProt Q15746); assay: Inhibition of human MYLK assessed as residual activity at 1 uM using RB-S6P as substrate in presence of 33P-ATP by ProQinase assay relative to control
[5] = system: Receptor-type tyrosine-protein kinase FLT3 (Homo sapiens), P36888 [K663Q]; assay: Inhibition of FLT3 K663Q mutant (unknown origin) assessed as remaining activity at 1 uM by Kinome scan method relative to control
[6] = target: Vascular endothelial growth factor receptor 3 (Homo sapiens) (UniProt P35916); assay: Inhibition of FLT4 (unknown origin) assessed as remaining activity at 1 uM by Kinome scan method relative to control
[7] = target: Serine/threonine-protein kinase MARK2 (Homo sapiens) (UniProt Q7KZI7); assay: Inhibition of human MARK2 assessed as residual activity at 1 uM using RBER-CHKtide as substrate in presence of 33P-ATP by ProQinase assay relative to control
[8] = system: Epidermal growth factor receptor (Homo sapiens), P00533 [L858R,T790M]; assay: Inhibition of EGFR L858R/T790M mutant (unknown origin) assessed as remaining activity at 1 uM by Kinome scan method relative to control
[9] = target: Mast/stem cell growth factor receptor Kit (Homo sapiens) (UniProt P10721); assay: Inhibition of KIT (unknown origin) assessed as remaining activity at 1 uM by Kinome scan method relative to control
[10] = target: Tyrosine-protein kinase FRK (Homo sapiens) (UniProt P42685); assay: Inhibition of human FRK assessed as residual activity at 1 uM using PolyEY as substrate in presence of 33P-ATP by ProQinase assay relative to control
[11] = target: Tyrosine-protein kinase Yes (Homo sapiens) (UniProt P07947); assay: Inhibition of human YES assessed as residual activity at 1 uM using polyEY as substrate in presence of 33P-ATP by ProQinase assay relative to control
[12] = target: Rho-associated protein kinase 2 (Homo sapiens) (UniProt O75116); assay: Inhibition of ROCK2 (unknown origin) assessed as remaining activity at 1 uM by Kinome scan method relative to control
[13] = Anti-inflammatory activity against human derived high respond PBMC cells assessed as inhibition in stimulated IL-4 cytokine release incubated for 2 hrs in the presence of LPS/SEB/aCD28 by Luminex based sandwich immunoassay; format: functional, cell-based
[14] = target: Cyclin-dependent kinase 15 (Homo sapiens) (UniProt Q96Q40); assay: Inhibition of PFTAIRE2 (unknown origin) assessed as remaining activity at 1 uM by Kinome scan method relative to control
[15] = target: T1, Serine/threonine-protein kinase NLK (Homo sapiens) (UniProt Q9UBE8); assay: Inhibition of human NLK assessed as residual activity at 1 uM using RBER-GSK3 as substrate in presence of 33P-ATP by ProQinase assay relative to control
T1 sequence (whole entry): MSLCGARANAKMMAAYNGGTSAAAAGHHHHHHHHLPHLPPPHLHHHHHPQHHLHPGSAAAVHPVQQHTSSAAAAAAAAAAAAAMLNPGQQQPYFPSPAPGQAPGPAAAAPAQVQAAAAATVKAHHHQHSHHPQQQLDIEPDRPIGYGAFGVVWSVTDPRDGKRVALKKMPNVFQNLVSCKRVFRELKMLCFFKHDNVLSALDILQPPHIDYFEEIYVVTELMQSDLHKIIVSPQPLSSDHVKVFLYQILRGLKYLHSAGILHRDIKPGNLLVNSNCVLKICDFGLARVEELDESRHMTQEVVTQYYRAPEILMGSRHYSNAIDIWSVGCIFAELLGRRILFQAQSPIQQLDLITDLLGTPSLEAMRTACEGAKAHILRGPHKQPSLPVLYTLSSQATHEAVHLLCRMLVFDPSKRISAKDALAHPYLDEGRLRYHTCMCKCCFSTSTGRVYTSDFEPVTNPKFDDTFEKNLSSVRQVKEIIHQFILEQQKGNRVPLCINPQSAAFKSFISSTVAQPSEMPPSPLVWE

[16] = target: Ribosomal protein S6 kinase alpha-6 (Homo sapiens) (UniProt Q9UK32); assay: Inhibition of N-terminal kinase domain RPS6KA6 (unknown origin) assessed as remaining activity at 1 uM by Kinome scan method relative to control
[17] = system: Hepatocyte growth factor receptor (Homo sapiens), P08581 [M1250T]; assay: Inhibition of human MET M1250T mutant assessed as residual activity at 1 uM using poly(Ala,Glu,Lys,Tyr)6:2:5:1 as substrate in presence of 33P-ATP by ProQinase assay relative to control
[18] = target: Glycogen synthase kinase-3 beta (Homo sapiens) (UniProt P49841); assay: Inhibition of human GSK3beta assessed as residual activity at 1 uM using RBER-CHKtide as substrate in presence of 33P-ATP by ProQinase assay relative to control
[19] = target: Mitogen-activated protein kinase kinase kinase 7 (Homo sapiens) (UniProt O43318); assay: Inhibition of TAK1 (unknown origin) assessed as remaining activity at 1 uM by Kinome scan method relative to control
[20] = target: MAP kinase p38 (Homo sapiens) (UniProt O15264+Q15759+Q16539+P53778); assay: Inhibition of p38-MAPK in human HeLa cells assessed as reduction in HSP27 phosphorylation at Ser82 level at 50 nM incubated for 2 hrs in the presence of anisomycin stimulation for 40 mins by western blot analysis; format: cell-based
[21] = target: Tyrosine-protein kinase ABL2 (Homo sapiens) (UniProt P42684); assay: Inhibition of ABL2 (unknown origin) assessed as remaining activity at 1 uM by Kinome scan method relative to control
[22] = target: ALK tyrosine kinase receptor (Homo sapiens) (UniProt Q9UM73); assay: Inhibition of human ALK assessed as residual activity at 1 uM using PolyEY as substrate in presence of 33P-ATP by ProQinase assay relative to control
[23] = target: Lymphokine-activated killer T-cell-originated protein kinase (Homo sapiens) (UniProt Q96KB5); assay: Inhibition of human PBK assessed as residual activity at 1 uM using histon H1 as substrate in presence of 33P-ATP by ProQinase assay relative to control
[24] = target: Vascular endothelial growth factor receptor 2 (Homo sapiens) (UniProt P35968); assay: Inhibition of VEGFR2 (unknown origin) assessed as remaining activity at 1 uM by Kinome scan method relative to control
Sequence of Vascular endothelial growth factor receptor 2 (Homo sapiens) (P35968 whole entry): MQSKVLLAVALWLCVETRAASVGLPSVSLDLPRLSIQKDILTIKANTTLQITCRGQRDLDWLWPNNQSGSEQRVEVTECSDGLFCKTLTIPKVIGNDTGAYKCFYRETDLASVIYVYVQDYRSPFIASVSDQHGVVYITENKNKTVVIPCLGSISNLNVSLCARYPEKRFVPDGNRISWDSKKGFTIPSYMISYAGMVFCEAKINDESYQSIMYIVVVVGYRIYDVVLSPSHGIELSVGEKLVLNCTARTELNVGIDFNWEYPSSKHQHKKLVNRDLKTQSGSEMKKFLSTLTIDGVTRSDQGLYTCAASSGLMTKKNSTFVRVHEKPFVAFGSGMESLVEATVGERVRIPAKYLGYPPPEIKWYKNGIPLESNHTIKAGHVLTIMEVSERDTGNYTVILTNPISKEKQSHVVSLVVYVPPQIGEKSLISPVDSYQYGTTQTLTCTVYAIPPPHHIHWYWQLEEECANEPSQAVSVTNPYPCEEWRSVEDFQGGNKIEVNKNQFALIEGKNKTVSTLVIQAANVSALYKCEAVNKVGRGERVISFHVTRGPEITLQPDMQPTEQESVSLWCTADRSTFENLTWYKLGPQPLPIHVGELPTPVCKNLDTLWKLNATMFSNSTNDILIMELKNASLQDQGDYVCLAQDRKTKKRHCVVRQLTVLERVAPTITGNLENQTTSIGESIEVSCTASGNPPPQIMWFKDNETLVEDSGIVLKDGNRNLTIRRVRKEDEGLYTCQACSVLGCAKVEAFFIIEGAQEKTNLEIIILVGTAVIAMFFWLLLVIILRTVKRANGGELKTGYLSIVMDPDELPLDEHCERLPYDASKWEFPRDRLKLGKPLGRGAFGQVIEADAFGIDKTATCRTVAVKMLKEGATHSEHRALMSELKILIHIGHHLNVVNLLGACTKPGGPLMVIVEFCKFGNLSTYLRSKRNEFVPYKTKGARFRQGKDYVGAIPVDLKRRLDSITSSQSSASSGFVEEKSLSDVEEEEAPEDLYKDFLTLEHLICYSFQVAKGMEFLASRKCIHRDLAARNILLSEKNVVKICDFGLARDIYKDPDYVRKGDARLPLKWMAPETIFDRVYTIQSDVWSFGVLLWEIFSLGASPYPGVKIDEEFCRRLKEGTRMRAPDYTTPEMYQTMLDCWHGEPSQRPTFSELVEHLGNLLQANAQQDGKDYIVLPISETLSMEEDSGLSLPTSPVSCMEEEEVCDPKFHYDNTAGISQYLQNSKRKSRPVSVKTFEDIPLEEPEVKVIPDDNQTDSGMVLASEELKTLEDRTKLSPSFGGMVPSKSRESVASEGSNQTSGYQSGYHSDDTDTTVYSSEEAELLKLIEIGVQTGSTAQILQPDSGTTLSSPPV

Sequence of Glycogen synthase kinase-3 beta (Homo sapiens) (P49841 whole entry, looked up): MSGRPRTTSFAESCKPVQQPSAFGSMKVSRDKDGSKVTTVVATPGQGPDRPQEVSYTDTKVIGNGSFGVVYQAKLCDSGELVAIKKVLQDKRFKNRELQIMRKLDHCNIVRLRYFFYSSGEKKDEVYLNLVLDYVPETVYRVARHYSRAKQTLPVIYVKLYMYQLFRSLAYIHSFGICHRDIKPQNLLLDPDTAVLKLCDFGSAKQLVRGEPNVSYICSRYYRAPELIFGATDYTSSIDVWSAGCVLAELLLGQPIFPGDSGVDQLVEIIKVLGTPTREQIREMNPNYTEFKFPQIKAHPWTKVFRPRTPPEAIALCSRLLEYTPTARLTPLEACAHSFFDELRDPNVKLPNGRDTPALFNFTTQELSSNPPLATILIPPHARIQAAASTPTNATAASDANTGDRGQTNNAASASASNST
Sequence of Ephrin type-B receptor 1 (Homo sapiens) (P54762 whole entry): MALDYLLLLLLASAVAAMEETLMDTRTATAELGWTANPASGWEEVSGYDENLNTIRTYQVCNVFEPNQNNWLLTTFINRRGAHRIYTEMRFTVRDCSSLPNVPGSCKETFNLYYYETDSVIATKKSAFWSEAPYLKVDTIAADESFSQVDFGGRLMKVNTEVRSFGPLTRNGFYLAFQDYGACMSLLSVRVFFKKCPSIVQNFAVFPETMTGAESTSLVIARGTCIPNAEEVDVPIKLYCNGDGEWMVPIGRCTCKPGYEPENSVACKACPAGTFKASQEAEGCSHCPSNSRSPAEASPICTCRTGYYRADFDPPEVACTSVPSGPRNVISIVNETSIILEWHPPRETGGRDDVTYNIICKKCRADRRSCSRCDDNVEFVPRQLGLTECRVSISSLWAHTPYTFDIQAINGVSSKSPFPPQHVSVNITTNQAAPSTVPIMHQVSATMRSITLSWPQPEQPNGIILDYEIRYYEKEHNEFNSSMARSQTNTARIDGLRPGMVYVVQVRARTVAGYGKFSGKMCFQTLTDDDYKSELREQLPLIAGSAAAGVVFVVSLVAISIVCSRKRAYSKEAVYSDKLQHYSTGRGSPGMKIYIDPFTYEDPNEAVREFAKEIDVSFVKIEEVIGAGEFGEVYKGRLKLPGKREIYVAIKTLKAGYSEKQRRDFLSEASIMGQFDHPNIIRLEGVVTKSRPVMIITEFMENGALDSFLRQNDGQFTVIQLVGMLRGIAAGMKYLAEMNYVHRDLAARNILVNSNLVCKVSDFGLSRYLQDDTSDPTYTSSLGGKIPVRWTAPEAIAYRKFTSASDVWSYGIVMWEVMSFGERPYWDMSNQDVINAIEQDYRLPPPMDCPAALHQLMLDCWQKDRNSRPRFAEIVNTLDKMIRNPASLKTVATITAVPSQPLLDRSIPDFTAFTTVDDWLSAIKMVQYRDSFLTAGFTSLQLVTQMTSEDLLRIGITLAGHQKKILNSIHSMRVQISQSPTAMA
Sequence of ALK tyrosine kinase receptor (Homo sapiens) (Q9UM73 19-1620 limits assumed): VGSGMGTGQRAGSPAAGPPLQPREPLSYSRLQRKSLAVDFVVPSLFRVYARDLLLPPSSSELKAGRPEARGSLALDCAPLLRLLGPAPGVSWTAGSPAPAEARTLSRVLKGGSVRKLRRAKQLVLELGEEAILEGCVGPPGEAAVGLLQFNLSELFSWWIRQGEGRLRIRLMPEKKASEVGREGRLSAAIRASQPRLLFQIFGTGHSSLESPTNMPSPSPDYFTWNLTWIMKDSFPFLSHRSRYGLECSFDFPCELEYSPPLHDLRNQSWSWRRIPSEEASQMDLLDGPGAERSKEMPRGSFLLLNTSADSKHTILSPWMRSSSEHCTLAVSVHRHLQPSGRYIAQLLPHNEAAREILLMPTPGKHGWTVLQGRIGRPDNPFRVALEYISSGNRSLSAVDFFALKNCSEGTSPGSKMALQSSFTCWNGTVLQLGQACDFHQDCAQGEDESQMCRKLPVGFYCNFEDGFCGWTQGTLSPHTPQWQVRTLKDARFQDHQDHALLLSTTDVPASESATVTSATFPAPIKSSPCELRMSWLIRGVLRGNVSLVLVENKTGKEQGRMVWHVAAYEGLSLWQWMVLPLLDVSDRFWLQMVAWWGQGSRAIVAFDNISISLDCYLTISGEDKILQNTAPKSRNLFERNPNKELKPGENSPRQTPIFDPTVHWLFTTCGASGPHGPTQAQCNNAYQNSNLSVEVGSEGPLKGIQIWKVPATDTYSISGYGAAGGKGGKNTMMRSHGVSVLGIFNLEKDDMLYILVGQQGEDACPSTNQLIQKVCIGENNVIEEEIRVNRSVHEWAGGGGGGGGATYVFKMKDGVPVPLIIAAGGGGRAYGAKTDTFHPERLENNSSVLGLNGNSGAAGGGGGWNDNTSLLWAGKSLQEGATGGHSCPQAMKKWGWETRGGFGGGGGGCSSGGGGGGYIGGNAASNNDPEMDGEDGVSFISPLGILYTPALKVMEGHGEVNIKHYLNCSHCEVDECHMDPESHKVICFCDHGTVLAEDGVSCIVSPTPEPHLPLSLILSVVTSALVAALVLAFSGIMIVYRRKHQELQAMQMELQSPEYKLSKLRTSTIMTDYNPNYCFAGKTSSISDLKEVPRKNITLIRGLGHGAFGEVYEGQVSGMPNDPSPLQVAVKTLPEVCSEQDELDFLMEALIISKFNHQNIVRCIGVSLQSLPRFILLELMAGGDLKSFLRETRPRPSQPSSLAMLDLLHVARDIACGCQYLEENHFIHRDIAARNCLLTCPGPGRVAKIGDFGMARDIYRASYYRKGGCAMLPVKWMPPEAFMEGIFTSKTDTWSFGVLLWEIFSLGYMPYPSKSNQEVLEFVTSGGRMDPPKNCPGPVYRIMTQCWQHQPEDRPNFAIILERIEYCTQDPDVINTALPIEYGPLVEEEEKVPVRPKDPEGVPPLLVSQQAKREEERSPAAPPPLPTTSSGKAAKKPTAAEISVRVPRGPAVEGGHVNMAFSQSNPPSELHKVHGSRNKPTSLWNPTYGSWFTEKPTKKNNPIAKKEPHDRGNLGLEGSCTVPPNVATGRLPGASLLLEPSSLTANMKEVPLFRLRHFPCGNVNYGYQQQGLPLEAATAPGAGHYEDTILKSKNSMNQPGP
Sequence of Mitogen-activated protein kinase kinase kinase 7 (Homo sapiens) (O43318 whole entry): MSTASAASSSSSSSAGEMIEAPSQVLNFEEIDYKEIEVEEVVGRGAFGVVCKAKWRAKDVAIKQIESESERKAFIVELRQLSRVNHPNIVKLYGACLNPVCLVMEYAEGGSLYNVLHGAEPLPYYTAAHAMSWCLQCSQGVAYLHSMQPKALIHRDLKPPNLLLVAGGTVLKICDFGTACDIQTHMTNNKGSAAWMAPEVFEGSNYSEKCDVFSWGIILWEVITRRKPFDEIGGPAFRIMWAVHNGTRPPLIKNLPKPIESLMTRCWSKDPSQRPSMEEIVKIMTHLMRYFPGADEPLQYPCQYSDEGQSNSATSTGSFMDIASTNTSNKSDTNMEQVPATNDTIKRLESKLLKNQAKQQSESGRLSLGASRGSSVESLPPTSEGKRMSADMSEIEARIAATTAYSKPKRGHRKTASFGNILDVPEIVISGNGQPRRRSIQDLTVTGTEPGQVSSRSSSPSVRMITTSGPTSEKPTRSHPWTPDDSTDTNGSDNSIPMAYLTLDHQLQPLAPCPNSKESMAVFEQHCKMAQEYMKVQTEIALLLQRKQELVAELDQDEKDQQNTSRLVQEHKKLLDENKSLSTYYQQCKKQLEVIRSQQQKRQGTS

## O=C1c2ccc(Nc3ccc(F)cc3F)cc2CCc2ccc(OC[C@H](O)CO)cc21 [Skepinone-L]
[1]
  Activity: 100%
[2]
  Activity: 100%
[3]
  Activity: 98%
[4]
  Activity: 78%
[5]
  Activity: 98%
[6]
  Activity: 97%
[7]
  Activity: 105%
[8]
  Activity: 100%
[9]
  Activity: 93%
[10]
  Activity: 111%
[11]
  Activity: 119%
[12]
  Activity: 100%
[13]
  IC50: Not Active
[14]
  Activity: 85%
[15]
  Activity: 87%
[16]
  Activity: 90%
[17]
  Activity: 100%
[18]
  Activity: 97%
[19]
  Activity: 100%
[20]
  inhibition: Active
[21]
  Activity: 100%
[22]
  Activity: 104%
[23]
  Activity: 113%
[24]
  Activity: 100%
